Tests used:
Enterobacter sakazakii = conditions: 16 μM ferrous sulfate, 12 h, FIG. 8B
Method: (§1) Ferrous sulfate aqueous solutions were configured to a final concentration of 16 μM; and prepare 10^8 CFU/mL of Escherichia coli, Listeria monocytogenes, Vibrio Parahemolyticus, Enterobacter sakazakii, Staphylococcus aureus and MRSA. A 96-well plate assay was performed to determine the susceptibility of six pathogenic bacteria to ferrous sulfate, and after 12 h treatment, the total number of bacterial colonies was determined in a drop-plate assay to further investigate the effect of ferrous ions on their inhibition.

Escherichia coli = conditions: 16 μM ferrous sulfate, 12 h, FIG. 8B
Method: as §1

Listeria monocytogenes = conditions: 16 μM ferrous sulfate, 12 h, FIG. 8B
Method: as §1

MRSA = conditions: 16 μM ferrous sulfate, 12 h, 10^8 CFU/mL
Method: as §1

Staphylococcus aureus [1] = conditions: 16 μM ferrous sulfate, 12 h, 10^8 CFU/mL
Method: as §1

Vibrio Parahemolyticus = conditions: 16 μM ferrous sulfate, 12 h, FIG. 8B
Method: as §1

S. aureus = tested on: S. aureus
Method: Ferrous sulfate aqueous solutions were configured to final concentrations of 1, 4, 16, and 64 μM, respectively, and ampicillin and vancomycin as positive controls were configured to 100 μg/mL, as well as ultrapure water without ferrous sulfate was set as a blank control group. Then 10^8 CFU/mL of S. aureus and MRSA were prepared. The cell suspensions were added with FeSO4 at final concentrations of 0, 1, 4, 16, 64 μM, respectively, and incubated at 37° C. 200 rpm for 12 h. […] After incubation, S. aureus cells were collected by centrifugation, suspended in 1 mL of normal saline solution, and subjected to 10-fold serial dilutions. Finally, 6 dilutions of each condition were plated on TSB agar, and the colony form units (CFU) were enumerated after incubation at 37° C. overnight.

Staphylococcus aureus [2] = conditions: 100 μM, 12 h treatment, approximately 10^8 CFU/mL
Method: To verify the antibacterial activity of ferrous ions against Staphylococcus aureus, the following tests were done: • 1. […] 96-well plate method was used to test the drug sensitivity of 9 ferrous salts against Staphylococcus aureus (approximately 10^8 CFU/mL). After 12 h treatment, the total number of bacterial colonies was determined followed by drop plate method to further investigate the antibacterial effect of iron ions on Staphylococcus aureus.

ferrous sulfate
bactericidal effect (Enterobacter sakazakii): strong bactericidal effect | bactericidal effect (Escherichia coli): strong bactericidal effect | bactericidal effect (Listeria monocytogenes): strong bactericidal effect | survival of MRSA (MRSA): less than 0.01% | survival rate of S. aureus (Staphylococcus aureus [1]): less than 0.001% | bactericidal effect (Vibrio Parahemolyticus): strong bactericidal effect | MBC (lowest concentration required to kill 99.99% cells of S. aureus) (S. aureus; 37° C., 200 rpm, 12 h, 10^8 CFU/mL): 16 µM | bactericidal rate (S. aureus; at 16 μM (MBC)): 99.99% | inhibition of the growth of S. aureus (Staphylococcus aureus [2]): ~100%
